Experimental data from the NIST ThermoML archive (doi:10.1007/s10765-008-0390-4).
± gives the expanded uncertainty stated by the source.

Experiment: xn = mol fraction of the nth substance listed
Conditions: 101 kPa, Liquid

ClC(Cl)Cl [trichloromethane] + CCCCO
mass density [kg/m3]
Conditions | 288.15 K | 293.15 K | 298.15 K | 303.15 K | 308.15 K | 313.15 K
x2 = 0 | 1498.08 ± 0.47 | 1488.64 ± 0.46 | 1479.15 ± 0.45 | 1469.61 ± 0.45 | 1460.03 ± 0.44 | 1450.41 ± 0.43
x2 = 0.0493 | 1458.97 ± 0.47 | 1449.82 ± 0.46 | 1440.63 ± 0.45 | 1431.4 ± 0.45 | 1422.12 ± 0.44 | 1412.82 ± 0.43
x2 = 0.0994 | 1420.12 ± 0.44 | 1411.28 ± 0.43 | 1402.39 ± 0.42 | 1393.45 ± 0.42 | 1384.45 ± 0.41 | 1375.41 ± 0.4
x2 = 0.1499 | 1381.86 ± 0.41 | 1373.34 ± 0.41 | 1364.77 ± 0.4 | 1356.15 ± 0.39 | 1347.47 ± 0.38 | 1338.76 ± 0.38
x2 = 0.2003 | 1344.3 ± 0.39 | 1336.11 ± 0.38 | 1327.86 ± 0.37 | 1319.57 ± 0.36 | 1311.21 ± 0.36 | 1302.8 ± 0.35
x2 = 0.2476 | 1309.65 ± 0.36 | 1301.76 ± 0.35 | 1293.82 ± 0.35 | 1285.82 ± 0.34 | 1277.77 ± 0.33 | 1269.66 ± 0.33
x2 = 0.279 | 1286.97 ± 0.34 | 1279.28 ± 0.34 | 1271.53 ± 0.33 | 1263.75 ± 0.33 | 1255.9 ± 0.32 | 1248.02 ± 0.31
x2 = 0.3474 | 1238.34 ± 0.31 | 1231.07 ± 0.3 | 1223.75 ± 0.3 | 1216.37 ± 0.29 | 1208.94 ± 0.29 | 1201.48 ± 0.28
x2 = 0.4003 | 1201.44 ± 0.28 | 1194.48 ± 0.28 | 1187.48 ± 0.27 | 1180.42 ± 0.27 | 1173.31 ± 0.26 | 1166.16 ± 0.26
x2 = 0.461 | 1159.74 ± 0.26 | 1153.14 ± 0.25 | 1146.5 ± 0.25 | 1139.81 ± 0.24 | 1133.06 ± 0.23 | 1126.29 ± 0.23
x2 = 0.4993 | 1133.81 ± 0.24 | 1127.43 ± 0.23 | 1121 ± 0.23 | 1114.53 ± 0.22 | 1108 ± 0.22 | 1101.42 ± 0.21
x2 = 0.5517 | 1098.6 ± 0.22 | 1092.6 ± 0.21 | 1086.4 ± 0.21 | 1080.3 ± 0.2 | 1074 ± 0.2 | 1067.8 ± 0.19
x2 = 0.5989 | 1067.38 ± 0.2 | 1061.55 ± 0.19 | 1055.69 ± 0.19 | 1049.78 ± 0.18 | 1043.81 ± 0.18 | 1037.8 ± 0.17
x2 = 0.651 | 1033.23 ± 0.18 | 1027.7 ± 0.17 | 1022.12 ± 0.17 | 1016.5 ± 0.17 | 1010.82 ± 0.16 | 1005.11 ± 0.16
x2 = 0.7008 | 1001.03 ± 0.16 | 995.76 ± 0.16 | 990.45 ± 0.16 | 985.097 ± 0.16 | 979.698 ± 0.17 | 974.26 ± 0.17
x2 = 0.7485 | 970.42 ± 0.17 | 965.404 ± 0.18 | 960.349 ± 0.18 | 955.255 ± 0.18 | 950.115 ± 0.18 | 944.94 ± 0.18
x2 = 0.7987 | 938.452 ± 0.19 | 933.697 ± 0.19 | 928.907 ± 0.2 | 924.082 ± 0.2 | 919.208 ± 0.2 | 914.297 ± 0.2
x2 = 0.8495 | 906.492 ± 0.21 | 901.999 ± 0.21 | 897.472 ± 0.21 | 892.91 ± 0.22 | 888.303 ± 0.22 | 883.67 ± 0.22
x2 = 0.8953 | 877.854 ± 0.23 | 873.588 ± 0.23 | 869.292 ± 0.23 | 864.961 ± 0.23 | 860.59 ± 0.24 | 856.188 ± 0.24
x2 = 0.9475 | 845.53 ± 0.25 | 841.51 ± 0.25 | 837.462 ± 0.25 | 833.386 ± 0.25 | 829.272 ± 0.26 | 825.138 ± 0.26

c1ccccc1 [benzene] + CCCCO
mass density [kg/m3]
Conditions | 288.15 K | 293.15 K | 298.15 K | 303.15 K | 308.15 K | 313.15 K
x2 = 0 | 884.246 ± 0.15 | 878.918 ± 0.16 | 873.582 ± 0.16 | 868.233 ± 0.17 | 862.871 ± 0.17 | 857.498 ± 0.17
x2 = 0.0193 | 882.483 ± 0.16 | 877.168 ± 0.16 | 871.844 ± 0.17 | 866.507 ± 0.17 | 861.158 ± 0.17 | 855.809 ± 0.18
x2 = 0.0534 | 879.595 ± 0.16 | 874.309 ± 0.16 | 869.007 ± 0.17 | 863.694 ± 0.17 | 858.36 ± 0.18 | 853.019 ± 0.18
x2 = 0.1013 | 875.72 ± 0.16 | 870.495 ± 0.17 | 865.255 ± 0.17 | 859.995 ± 0.17 | 854.713 ± 0.18 | 849.433 ± 0.18
x2 = 0.1509 | 871.829 ± 0.17 | 866.677 ± 0.17 | 861.506 ± 0.17 | 856.309 ± 0.18 | 851.089 ± 0.18 | 845.861 ± 0.19
x2 = 0.2016 | 867.984 ± 0.17 | 862.908 ± 0.17 | 857.807 ± 0.18 | 852.685 ± 0.18 | 847.536 ± 0.19 | 842.375 ± 0.19
x2 = 0.2018 | 867.955 ± 0.17 | 862.874 ± 0.17 | 857.776 ± 0.18 | 852.651 ± 0.18 | 847.499 ± 0.19 | 842.342 ± 0.19
x2 = 0.25 | 864.382 ± 0.17 | 859.372 ± 0.18 | 854.344 ± 0.18 | 849.285 ± 0.19 | 844.201 ± 0.19 | 839.11 ± 0.19
x2 = 0.2997 | 860.741 ± 0.18 | 855.806 ± 0.18 | 850.849 ± 0.19 | 845.866 ± 0.19 | 840.854 ± 0.19 | 835.83 ± 0.2
x2 = 0.3532 | 856.936 ± 0.18 | 852.081 ± 0.19 | 847.201 ± 0.19 | 842.294 ± 0.19 | 837.357 ± 0.2 | 832.4 ± 0.2
x2 = 0.4019 | 853.504 ± 0.19 | 848.721 ± 0.19 | 843.914 ± 0.19 | 839.08 ± 0.2 | 834.214 ± 0.2 | 829.324 ± 0.2
x2 = 0.4525 | 850 ± 0.19 | 845.3 ± 0.19 | 840.574 ± 0.2 | 835.817 ± 0.2 | 831.029 ± 0.2 | 826.217 ± 0.21
x2 = 0.4998 | 846.738 ± 0.2 | 842.111 ± 0.2 | 837.46 ± 0.2 | 832.778 ± 0.2 | 828.059 ± 0.21 | 823.32 ± 0.21
x2 = 0.5532 | 843.129 ± 0.2 | 838.594 ± 0.2 | 834.03 ± 0.21 | 829.436 ± 0.21 | 824.804 ± 0.21 | 820.157 ± 0.22
x2 = 0.6004 | 839.985 ± 0.2 | 835.529 ± 0.21 | 831.042 ± 0.21 | 826.525 ± 0.21 | 821.974 ± 0.22 | 817.402 ± 0.22
x2 = 0.6493 | 836.693 ± 0.21 | 832.317 ± 0.21 | 827.91 ± 0.21 | 823.473 ± 0.22 | 819.001 ± 0.22 | 814.449 ± 0.22
x2 = 0.701 | 833.239 ± 0.21 | 828.949 ± 0.22 | 824.631 ± 0.22 | 820.282 ± 0.22 | 815.895 ± 0.23 | 811.483 ± 0.23
x2 = 0.7502 | 829.979 ± 0.22 | 825.772 ± 0.22 | 821.537 ± 0.22 | 817.269 ± 0.23 | 812.965 ± 0.23 | 808.64 ± 0.23
x2 = 0.7945 | 827.051 ± 0.22 | 822.92 ± 0.22 | 818.759 ± 0.23 | 814.569 ± 0.23 | 810.343 ± 0.23 | 806.094 ± 0.24
x2 = 0.8511 | 823.296 ± 0.23 | 819.258 ± 0.23 | 815.196 ± 0.23 | 811.102 ± 0.23 | 806.975 ± 0.24 | 802.822 ± 0.24
x2 = 0.8961 | 820.299 ± 0.23 | 816.336 ± 0.23 | 812.348 ± 0.24 | 808.331 ± 0.24 | 804.274 ± 0.24 | 800.189 ± 0.24
x2 = 0.951 | 816.663 ± 0.24 | 812.791 ± 0.24 | 808.897 ± 0.24 | 804.977 ± 0.24 | 801.025 ± 0.25 | 797.051 ± 0.25
